Literature values in patent US20260191920A1, “METHODS AND COMPOSITIONS FOR TREATING AND PREVENTING CENTRAL NERVOUS SYSTEM DISORDERS AND OTHER CONDITIONS CAUSED BY GUT MICROBIAL DYSBIOSIS” (HOLOBIOME, INC., priority 2019, published 2026).

Key:
[1] = system: (Q+)tRNA^His and (Q+)tRNA^Asn in the liver; conditions: queuine-deficient mice, intraperitoneal, 325 micrograms per injection, 24 h apart; cited from earlier work
germ-free mice = conditions: chemically synthesized queuine at 0.1 μM in the diet; cited from earlier work
[2] = by day 6, mice pretreated with oral antibiotics, regardless of diet; cited from earlier work

SMILES | (Q+)tRNA^His and (Q+)tRNA^Asn percentages in the liver [1] | effect on adverse health effects and death of tyrosine- and queuine-deprived germ-free mice (germ-free mice) | fraction of ingested dose eliminated [2]
Nc1nc2[nH]cc(CN[C@H]3C=C[C@H](O)[C@@H]3O)c2c(=O)[nH]1 [queuine, 2-amino-5-((((1S,4S,5R)-4,5-dihydroxy-2-cyclopenten-1-yl)amino)methyl)-1,7-dihydro-4H-pyrrolo (2,3-d) pyrimidin-4-one] | corresponding increase | prevented emergence of these deleterious effects | 
[CH3][Hg][Cl] [methylmercury] |  |  | 0-6%
